The text below walks through data of ChEMBL document CHEMBL2396563, “Inhibitory constituents of the heartwood of Dalbergia odorifera on nitric oxide production in RAW 264.7 macrophages” (Bioorg Med Chem Lett, 2013).

A short description of series [1]: Cytotoxicity against mouse RAW264.7 cells by CCK assay. The series is classed as cell-based.
Series [2] is described as follows: Antiinflammatory activity in mouse RAW264.7 cells assessed as inhibition of LPS-induced nitric oxide production after 24 hrs by Griess assay. Type of series: functional, cell-based. Conditions: RAW264.7, 24 h. (In general: Nitrite, measured by Griess reagent, commonly stands in for NO production.)

A word on the IC50: it is the concentration that inhibits the measured activity by half. Consider `O=C1C[C@@H](c2cc(O)cc(O)c2)Oc2cc(O)cc(O)c21`, for which the Activity entry in series [1] is “Non-toxic”. Also, the IC50 in series [2] is over 100 µM.

On to `COc1ccc2c(c1)O[C@H]1c3ccc(O)cc3OC[C@@H]21`, for which, in series [1], the Activity entry is listed as “Non-toxic”. Further, in series [2], the 50% inhibitory concentration (IC50) is 83.7 µM.

Regarding `COc1cc(OC)c([C@H]2COc3cc(O)ccc3C2=O)cc1OC`, the Activity entry in series [1] is given as “Non-toxic”. In addition, the IC50 in series [2] was over 100 µM.

Consider `COc1cc2c(cc1O)C(=O)C[C@@H](c1ccc(O)cc1)O2`, for which the Activity entry in series [1] is “Non-toxic”. For the same compound, the half-maximal inhibitory concentration (IC50) in series [2] is over 100 µM.

In the case of `COc1cc2oc(=O)cc(-c3ccc(O)c(O)c3)c2cc1O`, the Activity result in series [1] is “Non-toxic”. In addition, the IC50 in series [2] was 45.5 µM.

In the case of `C=C[C@H](c1cccc(O)c1)c1cc(OC)c(OC)cc1OC`, in series [1], the Activity entry is reported as “Non-toxic”. For the same compound, the IC50 in series [2] was 70.3 µM.

For the compound `C=C[C@H](c1ccccc1)c1cc(OC)c(OC)cc1O`, in series [1], the Activity entry is given as “Non-toxic”. Besides, the IC50 in series [2] came out at 73.9 µM.

Consider `O=C(c1ccc(O)cc1O)[C@H](O)Cc1ccc(O)c(O)c1`, for which the Activity entry in series [1] is given as “Non-toxic”. Moreover, the IC50 in series [2] is over 100 µM.

Turning to `O=C(c1ccc(O)cc1O)[C@H](O)Cc1ccc(O)cc1`, the Activity entry in series [1] was “Non-toxic”. For the same compound, the half-maximal inhibitory concentration (IC50) in series [2] is over 100 µM.

For `COc1cc2c(=O)c3ccccc3oc2cc1O`, the Activity entry in series [1] was “Non-toxic”. The concentration for half-maximal inhibition (IC50) in series [2] is over 100 µM.

`COc1ccc([C@@]2(O)COc3cc(O)ccc3C2=O)c(OC)c1`: the Activity entry in series [1] is “Non-toxic”. Moreover, the IC50 in series [2] is over 100 µM.

`COc1ccc(-c2coc3cc(O)ccc3c2=O)c(OC)c1` [2'-METHOXYFORMONETIN]: the Activity result in series [1] was “Non-toxic”. The IC50 in series [2] is over 100 µM.

Regarding `C=C[C@H](c1ccccc1O)c1cc(OC)c(OC)cc1OC` [5-O-METHYLLATIFOLIN], the Activity result in series [1] was “Non-toxic”. Further, the IC50 in series [2] stood at 74 µM.

As to `COc1ccc([C@@H]2COc3cc(O)ccc3C2=O)c(OC)c1OC` [(3R)-3'-O-METHYLVIOLANONE], in series [1], the Activity result is “Non-toxic”. The IC50 in series [2] was over 100 µM.

For the compound `COc1ccc([C@@H]2COc3cc(O)ccc3C2=O)c(OC)c1` [(3R)-SATIVANONE], the Activity entry in series [1] is recorded as “Non-toxic”. In series [2], the IC50 was over 100 µM.

As to `COc1ccc([C@@H]2COc3cc(O)ccc3C2=O)c(OC)c1O` [(3R)-VIOLANONE], the Activity result in series [1] was “Non-toxic”. The IC50 in series [2] was over 100 µM.

As for `O=C(/C=C/c1ccc(O)c(O)c1)c1ccc(O)cc1O` [BUTEIN], the Activity entry in series [1] is reported as “Non-toxic”. For the same compound, in series [2], the IC50 came to 35.1 µM.

Take `O=c1c(-c2ccc(O)cc2)coc2cc(O)ccc12` [DAIDZEIN]: in series [1], the Activity result is “Non-toxic”. Moreover, in series [2], the IC50 is over 100 µM.

Turning to `COc1ccc(-c2coc3cc(O)ccc3c2=O)cc1` [FORMONONETIN], the Activity entry in series [1] is listed as “Non-toxic”. The IC50 in series [2] came to 56.1 µM.

With `O=C(/C=C/c1ccc(O)cc1)c1ccc(O)cc1O` [ISOLIQUIRITIGENIN], the Activity entry in series [1] is on record as “Non-toxic”. Further, in series [2], the IC50 worked out at 72 µM.

Take `C=C[C@H](c1ccccc1O)c1cc(O)c(OC)cc1OC` [LATIFOLIN]: in series [1], the Activity entry was “Non-toxic”. Further, the 50% inhibitory concentration (IC50) in series [2] was 73.2 µM.

For `COc1cc2oc(=O)cc(-c3ccc(O)cc3)c2cc1O` [MELANETTIN], in series [1], the Activity entry is reported as “Non-toxic”. The IC50 in series [2] was found to be 53.2 µM.

On to `COc1cc(-c2coc3cc(O)cc(O)c3c2=O)c(OC)cc1O` [OLIBERGIN A], for which, in series [1], the Activity result is reported as “Non-toxic”. In addition, the half-inhibitory concentration (IC50) in series [2] was 45.5 µM.

For the compound `O=c1c(-c2ccc(O)c(O)c2)coc2cc(O)cc(O)c12` [OROBOL], the Activity entry in series [1] is reported as “Non-toxic”. Besides, the IC50 in series [2] came to 43.7 µM.

For `N=C(N)NN` [PIMAGEDINE], in series [2], the IC50 amounted to 16.6 µM.

Consider `O=C1C[C@@H](c2ccccc2)Oc2cc(O)cc(O)c21` [PINOCEMBRIN], for which the Activity entry in series [1] was “Non-toxic”. The IC50 in series [2] stood at 18.1 µM.

In the case of `COc1cc(O)c2c(c1)O[C@H](c1ccccc1)CC2=O` [PINOSTROBIN], the Activity result in series [1] is on record as “Non-toxic”. Also, in series [2], the IC50 is 53.5 µM.
